# From publication PMC5458078, “Global mapping of CARM1 substrates defines enzyme specificity and substrate recognition” (Nature Communications, 2017)
# Where two headings read alike, the source gives them in different places.
# Tests used:
# MCF7 CARM1 KO cells = test: Quantitative MS of ADMA-containing peptides in MCF7 CARM1 KO cells expressing CARM1 28-608 or CARM1 140-608, and in CARM1 KO; assay type: cell-based, human
# MCF7 cells = test: Quantitative nanoLC-MS/MS (TMT) of ADMA-containing peptides, CARM1 KO vs parental; assay type: cell-based, human; set-up: Fold change KO/WT: scale not given here
# [1] = MCF7 CARM1 knockout vs wild type, 3 biological replicates each, values are on log2 scale
# [2] = CARM1 140-608 vs WT, mean of 3 replicates (log2 scale)
# [3] = KO vs WT, mean of 3 replicates (log2 scale)
# [4] = MCF7, CARM1 KO (KO1-KO3) vs wild type (WT1-WT3)
# [5] = ADMA-containing peptide, CARM1 knockout (KO) vs wild type (WT) MCF7 cells, 6-plex TMT experiment #1, three biological replicates each, sheet "MCF7"
# [6] = log2 scale ratio, mean of n = 3
# [7] = ADMA-containing peptide, MCF7, CARM1 knockout (KO1-3) vs wild type (WT1-3), TMT 6-plex experiment #1
# [8] = CARM1 140-608 versus WT, difference of mean log2 values
# [9] = CARM1 KO versus WT, difference of mean log2 values
# [10] = mean, CARM1 140-608 versus WT (log2 scale)
# [11] = mean, CARM1 KO versus WT (log2 scale)
# [12] = difference of log2 means, CARM1 140-608 vs WT
# [13] = difference of log2 means, KO vs WT
# [14] = CARM1 KO vs wild type MCF7 cells, 3 biological replicates each
# [15] = ratio on log2 scale, mean of 3 replicates
substance,measurement,setting,value
ISSSSFSrVGSSNFR,CARM1 140-608/WT,MCF7 CARM1 KO cells,-2.763
same,KO/WT,MCF7 CARM1 KO cells,-3.151
same,Fold change KO/WT,MCF7 cells; [1],-3.151
MGTPVPrPPQDMGQIGVrTPLGPRVAAPVGPVGPTPTVLPMGAPVPrPR,CARM1 140-608/WT,MCF7 CARM1 KO cells; [2],-2.791
same,KO/WT,MCF7 CARM1 KO cells; [3],-3.834
same,Fold change KO/WT,MCF7 cells; [4],-3.625
MGTPVPRPPQDMGQIGVrTPLGPrVAAPVGPVGPTPTVLPMGAPVPrPrGPPPPPGDENR,CARM1 140-608/WT,MCF7 CARM1 KO cells; [2],-2.604
same,KO/WT,MCF7 CARM1 KO cells; [3],-3.5517
same,Fold change KO/WT,MCF7 cells; [4],-3.294
FEGPQGQLGGGCPLrFEGPPGPVGTPLrFEGPIGQAGGGGFR,CARM1 140-608/WT,"MCF7 CARM1 KO cells; CARM1 140-608 versus WT, mean of three replicates (log2)",1.054
same,KO/WT,"MCF7 CARM1 KO cells; KO versus WT, mean of three replicates (log2)",-2.35
same,Fold change KO/WT,MCF7 cells; [5],-2.35
ELSHPPLYrLPLLENAETPQ,CARM1 140-608/WT,MCF7 CARM1 KO cells; [6],-1.659
same,KO/WT,MCF7 CARM1 KO cells; [6],-3.498
same,Fold change KO/WT,MCF7 cells; [7],-3.498
GQPrTWLQSPV,CARM1 140-608/WT,MCF7 CARM1 KO cells; [2],-2.79
same,KO/WT,MCF7 CARM1 KO cells; [3],-3.17
same,Fold change KO/WT,MCF7 cells; [4],-3.17
QrGVSHAMGGrGGINrGNIN,CARM1 140-608/WT,MCF7 CARM1 KO cells; [8],-0.01925
same,KO/WT,MCF7 CARM1 KO cells; [9],0.2719
same,Fold change KO/WT,MCF7 cells; [7],0.1671
RAPVPVrGGPK,CARM1 140-608/WT,MCF7 CARM1 KO cells; [10],0.3236
same,KO/WT,MCF7 CARM1 KO cells; [11],1.039
same,Fold change KO/WT,MCF7 cells; [1],0.8174
SKPQLArYLGGSMDLSTFDFR,CARM1 140-608/WT,MCF7 CARM1 KO cells; [12],-0.3331
same,KO/WT,MCF7 CARM1 KO cells; [13],-0.5289
same,Fold change KO/WT,MCF7 cells; [5],-0.3057
GAPHFrFIIAGR,CARM1 140-608/WT,MCF7 CARM1 KO cells; [6],-0.6361
same,KO/WT,MCF7 CARM1 KO cells; [6],-0.5643
same,Fold change KO/WT,MCF7 cells; [7],-0.1995
HQQLQQMrMQQPPAPVPTTTTTTQQHPrQAAPQMLQQQPPrLISVQTMQR,CARM1 140-608/WT,MCF7 CARM1 KO cells; [8],-0.9301
same,KO/WT,MCF7 CARM1 KO cells; [9],-2.355
same,Fold change KO/WT,MCF7 cells; [7],-1.659
same,Fold change KO/WT,MCF7 cells; [14],-1.574
GTVVTPVQVPLLPVPSQPrPAVGPQrFPGPPEFPQHTPGPVPNSFSQPPrLPLQDQWrAPPPPQDR,CARM1 140-608/WT,MCF7 CARM1 KO cells; [2],-1.653
same,KO/WT,MCF7 CARM1 KO cells; [3],-3.712
same,Fold change KO/WT,MCF7 cells; [4],-3.321
GPPPGSANPPrLVSSYrLK,CARM1 140-608/WT,MCF7 CARM1 KO cells; [12],-0.6365
same,KO/WT,MCF7 CARM1 KO cells; [13],-1.758
same,Fold change KO/WT,MCF7 cells; [1],-2.444
GPPGGNrGGFQNrGGGSGGGGNYrGGFNR,CARM1 140-608/WT,MCF7 CARM1 KO cells; [10],0.1824
same,KO/WT,MCF7 CARM1 KO cells; [11],0.1614
same,Fold change KO/WT,MCF7 cells; [1],0.2458
LLPAPrAYLVPENFR,CARM1 140-608/WT,MCF7 CARM1 KO cells; [8],-1.125
same,KO/WT,MCF7 CARM1 KO cells; [9],-0.8691
same,Fold change KO/WT,MCF7 cells; [14],-0.8691
LGQDPYrLGHDPYR,CARM1 140-608/WT,MCF7 CARM1 KO cells,-1.933
same,KO/WT,MCF7 CARM1 KO cells,-1.973
same,Fold change KO/WT,MCF7 cells; [7],-1.973
SIVPTMHYQDSLPrLPIPK,CARM1 140-608/WT,MCF7 CARM1 KO cells; [15],-1.626
same,KO/WT,MCF7 CARM1 KO cells; [15],-2.513
same,Fold change KO/WT,"MCF7 cells; MCF7, CARM1 knockout vs wild type, n = 3 each",-2.513
